Data from patent US12391682B2, “Isoquinoline derivatives and their use for the treatment of parasitic infections” (Elanco Animal Health GmbH, priority 2019, dated 2025).
pEC50: −log10 of the molar value.

Experiments:
[1] = tested on: Adult Nippostrongylus brasiliensis; experiment: In Vitro Assay 3: Nippostrongylus brasiliensis (NIPOBR), acetylcholine esterase readout; settings: at 10 μg/ml (10 ppm), adult worms, read-out: activity (reduction of AChE compared to negative control)
Experimental: In Vitro Assay 3: Nippostrongylus brasiliensis (NIPOBR)
Adult Nippostrongylus brasiliensis were washed with saline buffer containing 100 U/ml penicillin, 0.1 mg/ml streptomycin and 2.5 μg/ml amphotericin B. Test compounds were dissolved in DMSO and worms were incubated in medium in a final concentration of 10 μg/ml (10 ppm). An aliquot of the medium was used to determine the acetylcholine esterase activity in comparison to a negative control. The principle of measuring acetylcholine esterase as readout for anthelmintic activity was described in Rapson et al (1986) and Rapson et al (1987).

[2] = tested on: Dirofilaria immitis microfilariae; experiment: In Vitro Assay 4: Dirofilaria immitis microfilariae (DIROIM L1), motility; settings: 72 h, read-out: EC50 (reduction of motility in comparison to the negative control)
[3] = molecular target: D. immitis Slo-1 (Dirofilaria immitis, UniProt I0DFK5); experiment: In Vitro Assay 2: D. immitis Slo-1, membrane potential measurement in stable recombinant CHO cell line; assay type: cell-based
[4] = tested on: Dirofilaria immitis; experiment: In Vitro Assay 5: Dirofilaria immitis (DIROIM L4), motility; settings: 72 h, read-out: EC50 (reduction of motility in comparison to the negative control)
[5] = molecular target: C. elegans Slo-1a (Caenorhabditis elegans, UniProt Q95V25)
C. elegans Slo-1a, sequence (Q95V25 whole entry): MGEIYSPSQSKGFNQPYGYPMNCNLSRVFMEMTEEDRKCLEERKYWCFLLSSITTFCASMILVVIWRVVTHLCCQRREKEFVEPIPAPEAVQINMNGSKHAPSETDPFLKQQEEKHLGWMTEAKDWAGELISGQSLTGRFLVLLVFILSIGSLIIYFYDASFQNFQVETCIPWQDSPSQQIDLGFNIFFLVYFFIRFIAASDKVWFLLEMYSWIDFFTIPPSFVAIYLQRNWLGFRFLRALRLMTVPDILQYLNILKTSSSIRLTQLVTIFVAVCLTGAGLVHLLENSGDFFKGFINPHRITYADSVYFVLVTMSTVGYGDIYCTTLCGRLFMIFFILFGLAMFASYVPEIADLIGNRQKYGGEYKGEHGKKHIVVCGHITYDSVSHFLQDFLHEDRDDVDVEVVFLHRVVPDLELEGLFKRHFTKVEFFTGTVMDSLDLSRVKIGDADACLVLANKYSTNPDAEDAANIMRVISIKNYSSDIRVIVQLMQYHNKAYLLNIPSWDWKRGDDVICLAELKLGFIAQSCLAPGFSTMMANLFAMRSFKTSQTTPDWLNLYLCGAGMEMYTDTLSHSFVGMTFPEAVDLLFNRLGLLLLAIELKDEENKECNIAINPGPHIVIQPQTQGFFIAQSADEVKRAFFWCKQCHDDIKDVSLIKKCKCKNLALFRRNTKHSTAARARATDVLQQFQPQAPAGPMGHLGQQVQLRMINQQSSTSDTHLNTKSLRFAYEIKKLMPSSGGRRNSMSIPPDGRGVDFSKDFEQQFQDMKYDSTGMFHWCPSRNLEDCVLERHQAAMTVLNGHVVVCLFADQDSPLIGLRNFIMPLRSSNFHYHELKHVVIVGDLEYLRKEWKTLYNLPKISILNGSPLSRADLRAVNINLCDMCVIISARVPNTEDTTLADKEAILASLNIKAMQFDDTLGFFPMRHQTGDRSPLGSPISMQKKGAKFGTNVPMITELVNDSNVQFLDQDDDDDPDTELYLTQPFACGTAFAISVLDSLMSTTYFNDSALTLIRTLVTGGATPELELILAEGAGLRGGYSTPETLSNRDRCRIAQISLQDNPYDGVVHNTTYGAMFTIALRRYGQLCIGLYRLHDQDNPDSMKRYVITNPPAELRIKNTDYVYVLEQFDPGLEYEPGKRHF
Experimental: In Vitro Assay 1: C. elegans Slo-1a—Action at a Recombinant C. elegans Cell Line
Generation of a Stable Caenorhabditis elegans CHO Cell Line
A CHO cell line was obtained from ATCC, code ATCC CRL-9096. For transfection with plasmid DNA to express C. elegans Slo-1a (accession number AAL28102)CHO cells were passaged to 40% confluence before adding the transfection solution to the cell culture. The transfection solution included 300 μL OptiMEM (Life Technologies, Nr.: 31985), 2 μL (=6 μg) of plasmid DNA containing the C. elegans Slo 1a gene and 9 μL FugeneHD (Promega, Nr.: E2311), and was added to the cells prior to incubation for 48 hours at 37° C., 5% CO2. The transfection medium was exchanged for the selection medium which contains additional G418 (2 mg/ml, Invitrogen, Nr.: 10131) and the cells were seeded into 384 well plates (300 cells/well). […]
After starting the measurement of fluorescence using a FLIPR Tetra (Molecular Devices, Exc. 510-545 nm, Emm. 565-625 n), test compounds were added followed by the addition of KCl tyrode (final assay concentration: 70 mM KCl, 2 mM CaCl2, 1 mM MgCl2, 0.8 mM NaH2PO4, 5 mM Glucose, 28 mM Hepes, pH 7.4, including the voltage sensitive dye). […]
The data were evaluated by using the ActivityBase XLfit software (IDBS) for curve fitting and calculation of the half-maximal effective concentration (EC50) and are reported as negative decadic logarithm (pE50).

D. immitis Slo-1, sequence (I0DFK5 1-1119): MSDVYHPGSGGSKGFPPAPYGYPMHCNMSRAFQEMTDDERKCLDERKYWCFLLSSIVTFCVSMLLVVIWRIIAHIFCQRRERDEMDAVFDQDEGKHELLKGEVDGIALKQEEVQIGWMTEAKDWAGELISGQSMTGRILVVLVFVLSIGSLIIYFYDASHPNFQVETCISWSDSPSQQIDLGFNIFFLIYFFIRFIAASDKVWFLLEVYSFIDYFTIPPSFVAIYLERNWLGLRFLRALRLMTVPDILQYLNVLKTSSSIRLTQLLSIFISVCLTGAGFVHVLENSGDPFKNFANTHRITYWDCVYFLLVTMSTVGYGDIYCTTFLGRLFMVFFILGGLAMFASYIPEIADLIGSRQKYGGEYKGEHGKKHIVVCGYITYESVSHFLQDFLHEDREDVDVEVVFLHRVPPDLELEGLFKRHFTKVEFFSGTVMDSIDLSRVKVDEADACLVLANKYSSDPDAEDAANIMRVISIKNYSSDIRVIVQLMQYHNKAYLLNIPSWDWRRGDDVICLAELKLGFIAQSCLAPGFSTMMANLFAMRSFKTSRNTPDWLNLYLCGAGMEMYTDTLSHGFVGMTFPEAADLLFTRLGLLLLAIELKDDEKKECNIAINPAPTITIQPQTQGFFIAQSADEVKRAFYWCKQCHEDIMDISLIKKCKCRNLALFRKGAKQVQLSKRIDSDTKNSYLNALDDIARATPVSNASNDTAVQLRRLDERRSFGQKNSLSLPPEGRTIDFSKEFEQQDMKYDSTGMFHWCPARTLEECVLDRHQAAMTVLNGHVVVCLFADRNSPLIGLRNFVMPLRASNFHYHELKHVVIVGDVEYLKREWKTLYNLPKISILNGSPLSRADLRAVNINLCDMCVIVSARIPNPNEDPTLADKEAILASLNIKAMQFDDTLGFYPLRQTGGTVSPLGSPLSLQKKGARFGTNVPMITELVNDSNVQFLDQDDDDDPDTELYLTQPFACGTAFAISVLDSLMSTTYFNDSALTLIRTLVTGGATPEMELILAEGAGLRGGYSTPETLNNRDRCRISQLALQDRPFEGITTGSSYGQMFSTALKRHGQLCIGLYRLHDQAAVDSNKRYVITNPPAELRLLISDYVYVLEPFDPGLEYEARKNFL

Work on `O=C(N[C@H]1CCOc2ccccc21)c1ncc2c(-c3cc(F)cc(F)c3F)cccc2c1N1CCOCC1` [Example I-1, N-[(4S)-3,4-dihydro-2H-chromen-4-yl]-4-(morpholin-4-yl)-8-(2,3,5-trifluorophenyl)isoquinoline-3-carboxamide] yielded an inhibition at 10 µg/mL [1] of over 80%, an EC50 [2] of under 0.1 µg/mL and a pEC50 [3] of 7.50 to 8.50. For the same molecule, the EC50 [4] was under 0.1 µg/mL.
Work on `Cc1c(C(=O)N[C@H]2CCOc3ccccc32)ncc2c(-c3cc(F)cc(F)c3F)cccc12` [Example I-2, N-[(4S)-3,4-dihydro-2H-chromen-4-yl]-4-methyl-8-(2,3,5-trifluorophenyl)isoquinoline-3-carboxamide] yielded an inhibition at 10 µg/mL [1] of over 80%, an EC50 [2] of under 0.1 µg/mL and a pEC50 [3] of 5.30 to 6.50. It also gave an EC50 [4] of under 0.1 µg/mL.
In the case of `CC(C)c1c(C(=O)N[C@H]2CCOc3ccccc32)ncc2c(-c3cc(F)cc(F)c3F)cccc12` [Example I-3, N-[(4S)-3,4-dihydro-2H-chromen-4-yl]-4-isopropyl-8-(2,3,5-trifluorophenyl)isoquinoline-3-carboxamide], the inhibition at 10 µg/mL [1] was over 80%, the EC50 [2] was under 0.1 µg/mL and the pEC50 [3] was 6.50 to 7.50. The EC50 [4] was under 0.1 µg/mL.
With `CC(C)c1c(C(=O)N[C@H]2CCOc3ccccc32)ncc2c(-c3cc(Cl)cc(Cl)c3)cccc12` [Example I-4] the inhibition at 10 µg/mL [1] was over 80%, the EC50 [2] was under 0.1 µg/mL and the pEC50 [3] was 6.50 to 7.50. It also gave an EC50 [4] of under 0.1 µg/mL.
With `Cc1c(C(=O)N[C@H]2CCc3ccccc32)ncc2c(-c3cc(F)cc(F)c3F)cccc12` [Example I-7] the inhibition at 10 µg/mL [1] was over 80%, the EC50 [2] was under 0.1 µg/mL and the pEC50 [3] was 5.30 to 6.50. The EC50 [4] was under 1 µg/mL.
Molecule `O=C(N[C@H]1CCCc2ccccc21)c1ncc2c(-c3cc(Cl)cc(Cl)c3)cccc2c1N1CCOCC1` [Example I-8] has a pEC50 [5] of 7.50 to 8.50, an inhibition at 10 µg/mL [1] of over 80% and an EC50 [2] of under 0.1 µg/mL. For the same molecule, the pEC50 [3] was 5.30 to 6.50 and the EC50 [4] was under 0.1 µg/mL.
In the case of `O=C(N[C@H]1CCCc2ccccc21)c1ncc2c(-c3cc(F)cc(F)c3F)cccc2c1N1CCOCC1` [Example I-9], the inhibition at 10 µg/mL [1] was over 80%, the EC50 [2] was under 0.1 µg/mL and the pEC50 [3] was 6.50 to 7.50. The EC50 [4] was under 0.1 µg/mL.
`O=C(N[C@H]1CCOc2ccccc21)c1ncc2c(-c3cc(Cl)cc(Cl)c3)cccc2c1N1CCOCC1` [Example I-11] gave an inhibition at 10 µg/mL [1] of over 80%, an EC50 [2] of under 0.1 µg/mL and a pEC50 [3] of 5.30 to 6.50. It also gave an EC50 [4] of under 0.1 µg/mL.
With `CC(C)(C)c1cc(Cl)cc(-c2cccc3c(N4CCOCC4)c(C(=O)N[C@H]4CCOc5ccccc54)ncc23)c1` [Example I-12] the inhibition at 10 µg/mL [1] was over 80%, the EC50 [2] was under 0.1 µg/mL and the pEC50 [3] was 5.30 to 6.50. It also gave an EC50 [4] of under 0.1 µg/mL.
Work on `Cc1c(C(=O)N[C@H]2CCOc3ccccc32)ncc2c(-c3cc(Cl)cc(Cl)c3)cccc12` [Example I-13] yielded a pEC50 [5] of 6.50 to 7.50, an inhibition at 10 µg/mL [1] of over 80% and an EC50 [2] of under 0.1 µg/mL. For the same molecule, the EC50 [4] was under 1 µg/mL.
Work on `O=C(NC1CCSc2ccc(F)cc21)c1ncc2c(-c3cc(F)cc(F)c3F)cccc2c1N1CCOCC1` (centres unmarked) [Example I-15] yielded an EC50 [2] of under 1 µg/mL, a pEC50 [3] of 5.30 to 6.50 and an EC50 [4] of under 0.1 µg/mL.
Work on `O=C(N[C@H]1CCOc2ccccc21)c1cnc2c(Br)cccc2c1N1CCOCC1` [IC-1, 8-Bromo-N-[(4S)-3,4-dihydro-2H-chromen-4-yl]-4-(morpholin-4-yl)quinoline-3-carboxamide] yielded an EC50 [2] of under 10 µg/mL.
Molecule `Cc1c(C(=O)N[C@H]2CCOc3ccccc32)ncc2c(Br)cccc12` [IC-2, 8-Bromo-N-[(4S)-3,4-dihydro-2H-chromen-4-yl]-4-methylisoquinoline-3-carboxamide] has an EC50 [2] of under 10 µg/mL.
`CC(C)c1c(C(=O)N[C@H]2CCOc3ccccc32)ncc2c(Br)cccc12` [IC-3, 8-Bromo-N-[(4S)-3,4-dihydro-2H-chromen-4-yl]-4-isopropylisoquinoline-3-carboxamide] gave an EC50 [2] of under 10 µg/mL.
